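Results reflect a 48-hour exposure of cells in 96-well plates to compound at five concentrations. At the TGI there is no net growth.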 Where a SMILES comes first, the peptide text is derived from it. [ ]: non-standard residue; d: D form.
Tests used:
Assay in all cases: growth of human tumour cells (NCI), 48 h
U251 CNS = test system: U251 CNS
HCT-15 colon = test system: HCT-15 colon
MOLT-4 leukemia = test system: MOLT-4 leukemia
OVCAR-4 ovarian = test system: OVCAR-4 ovarian
HCC-2998 colon = test system: HCC-2998 colon
SNB-19 CNS = test system: SNB-19 CNS
BT-549 breast = test system: BT-549 breast
RPMI-8226 leukemia = test system: RPMI-8226 leukemia
SR leukemia = test system: SR leukemia
SF-268 CNS = test system: SF-268 CNS
UACC-62 melanoma = test system: UACC-62 melanoma
PC-3 prostate = test system: PC-3 prostate
UACC-257 melanoma = test system: UACC-257 melanoma
SK-OV-3 ovarian = test system: SK-OV-3 ovarian
SW-620 colon = test system: SW-620 colon
DU-145 prostate = test system: DU-145 prostate
M14 melanoma = test system: M14 melanoma
SNB-75 CNS = test system: SNB-75 CNS
HCT-116 colon = test system: HCT-116 colon
RXF 393 renal = test system: RXF 393 renal
MDA-MB-231 breast = test system: MDA-MB-231 breast
T-47D breast = test system: T-47D breast
MDA-MB-435 = test system: MDA-MB-435
NCI-H226 lung = test system: NCI-H226 lung
EKVX NSCLC = test system: EKVX NSCLC
HOP-92 NSCLC = test system: HOP-92 NSCLC
HOP-62 NSCLC = test system: HOP-62 NSCLC
COLO 205 colon = test system: COLO 205 colon
786-0 renal = test system: 786-0 renal
NCI/ADR-RES ovarian = test system: NCI/ADR-RES ovarian
IGROV1 ovarian = test system: IGROV1 ovarian
LOX IMVI melanoma = test system: LOX IMVI melanoma
SK-MEL-5 melanoma = test system: SK-MEL-5 melanoma
SK-MEL-2 melanoma = test system: SK-MEL-2 melanoma
TK-10 renal = test system: TK-10 renal
KM12 colon = test system: KM12 colon
HL-60(TB) leukemia = test system: HL-60(TB) leukemia
UO-31 renal = test system: UO-31 renal
SF-539 CNS = test system: SF-539 CNS
MCF7 breast = test system: MCF7 breast
NCI-H460 lung = test system: NCI-H460 lung
A498 renal = test system: A498 renal
HS 578T breast = test system: HS 578T breast
ACHN renal = test system: ACHN renal
CAKI-1 renal = test system: CAKI-1 renal
K-562 leukemia = test system: K-562 leukemia
CCRF-CEM leukemia = test system: CCRF-CEM leukemia
NCI-H23 lung = test system: NCI-H23 lung
SK-MEL-28 melanoma = test system: SK-MEL-28 melanoma
OVCAR-8 ovarian = test system: OVCAR-8 ovarian
HT29 colon = test system: HT29 colon
SF-295 CNS = test system: SF-295 CNS
NCI-H522 lung = test system: NCI-H522 lung
SN12C renal = test system: SN12C renal
OVCAR-5 ovarian = test system: OVCAR-5 ovarian
A549 NSCLC = test system: A549 NSCLC
OVCAR-3 ovarian = test system: OVCAR-3 ovarian

## O=C(Nc1ccc(Cl)cc1)c1cc2c(cc1Cl)SC(NNCCO)=NS2(=O)=O
U251 CNS
  TGI: > 100 µM
HCT-15 colon
  TGI: > 100 µM
MOLT-4 leukemia
  TGI: > 100 µM
OVCAR-4 ovarian
  TGI: > 100 µM
HCC-2998 colon
  TGI: > 100 µM
SNB-19 CNS
  TGI: > 100 µM
BT-549 breast
  TGI: > 100 µM
RPMI-8226 leukemia
  TGI: > 100 µM
SR leukemia
  TGI: > 100 µM
SF-268 CNS
  TGI: > 100 µM
UACC-62 melanoma
  TGI: > 100 µM
PC-3 prostate
  TGI: > 100 µM
UACC-257 melanoma
  TGI: > 100 µM
SK-OV-3 ovarian
  TGI: > 100 µM
SW-620 colon
  TGI: > 100 µM
DU-145 prostate
  TGI: > 100 µM
M14 melanoma
  TGI: > 100 µM
SNB-75 CNS
  TGI: > 100 µM
HCT-116 colon
  TGI: > 100 µM
RXF 393 renal
  TGI: > 100 µM
MDA-MB-231 breast
  TGI: > 100 µM
T-47D breast
  TGI: > 100 µM
MDA-MB-435
  TGI: > 100 µM
NCI-H226 lung
  TGI: > 100 µM
EKVX NSCLC
  TGI: > 100 µM
HOP-92 NSCLC
  TGI: > 100 µM
HOP-62 NSCLC
  TGI: > 100 µM
COLO 205 colon
  TGI: > 100 µM
786-0 renal
  TGI: > 100 µM
NCI/ADR-RES ovarian
  TGI: > 100 µM
IGROV1 ovarian
  TGI: > 100 µM
LOX IMVI melanoma
  TGI: > 100 µM
SK-MEL-5 melanoma
  TGI: > 100 µM
SK-MEL-2 melanoma
  TGI: > 100 µM
TK-10 renal
  TGI: > 100 µM
KM12 colon
  TGI: > 100 µM
HL-60(TB) leukemia
  TGI: > 100 µM
UO-31 renal
  TGI: > 100 µM
SF-539 CNS
  TGI: > 100 µM
MCF7 breast
  TGI: > 100 µM
NCI-H460 lung
  TGI: > 100 µM
A498 renal
  TGI: > 100 µM
HS 578T breast
  TGI: > 100 µM
ACHN renal
  TGI: > 100 µM
CAKI-1 renal
  TGI: > 100 µM
K-562 leukemia
  TGI: > 100 µM
CCRF-CEM leukemia
  TGI: > 100 µM
NCI-H23 lung
  TGI: > 100 µM
SK-MEL-28 melanoma
  TGI: > 100 µM
OVCAR-8 ovarian
  TGI: > 100 µM
HT29 colon
  TGI: > 100 µM
SF-295 CNS
  TGI: > 100 µM

## NC(N)=NCCC[C@H]1NC(=O)[C@@H](CCC(=O)O)NC(=O)[C@@H](CC(=O)O)NC(=O)[C@@H](CCC(=O)O)NC(=O)[C@H](Cc2c[nH]c3ccccc23)NC1=O (cyclo(W[dE][dD][dE][dR]))
U251 CNS
  TGI: > 7.5 µM
HCT-15 colon
  TGI: > 7.5 µM
MOLT-4 leukemia
  TGI: > 7.5 µM
OVCAR-4 ovarian
  TGI: > 7.5 µM
HCC-2998 colon
  TGI: > 7.5 µM
SNB-19 CNS
  TGI: > 7.5 µM
BT-549 breast
  TGI: > 7.5 µM
RPMI-8226 leukemia
  TGI: > 7.5 µM
SR leukemia
  TGI: > 7.5 µM
SF-268 CNS
  TGI: > 7.5 µM
NCI-H522 lung
  TGI: > 7.5 µM
UACC-62 melanoma
  TGI: > 7.5 µM
PC-3 prostate
  TGI: > 7.5 µM
UACC-257 melanoma
  TGI: > 7.5 µM
SK-OV-3 ovarian
  TGI: > 7.5 µM
SW-620 colon
  TGI: > 7.5 µM
SN12C renal
  TGI: > 7.5 µM
DU-145 prostate
  TGI: > 7.5 µM
OVCAR-5 ovarian
  TGI: > 7.5 µM
M14 melanoma
  TGI: > 7.5 µM
HCT-116 colon
  TGI: > 7.5 µM
RXF 393 renal
  TGI: > 7.5 µM
MDA-MB-231 breast
  TGI: > 7.5 µM
T-47D breast
  TGI: > 7.5 µM
MDA-MB-435
  TGI: > 7.5 µM
NCI-H226 lung
  TGI: > 7.5 µM
A549 NSCLC
  TGI: > 7.5 µM
EKVX NSCLC
  TGI: > 7.5 µM
HOP-92 NSCLC
  TGI: > 7.5 µM
HOP-62 NSCLC
  TGI: > 7.5 µM
COLO 205 colon
  TGI: > 7.5 µM
786-0 renal
  TGI: > 7.5 µM
NCI/ADR-RES ovarian
  TGI: > 7.5 µM
IGROV1 ovarian
  TGI: > 7.5 µM
LOX IMVI melanoma
  TGI: > 7.5 µM
SK-MEL-5 melanoma
  TGI: > 7.5 µM
SK-MEL-2 melanoma
  TGI: 0.507 µM
TK-10 renal
  TGI: > 7.5 µM
KM12 colon
  TGI: > 7.5 µM
HL-60(TB) leukemia
  TGI: > 7.5 µM
UO-31 renal
  TGI: > 7.5 µM
SF-539 CNS
  TGI: > 7.5 µM
MCF7 breast
  TGI: > 7.5 µM
NCI-H460 lung
  TGI: > 7.5 µM
A498 renal
  TGI: > 7.5 µM
HS 578T breast
  TGI: > 7.5 µM
ACHN renal
  TGI: > 7.5 µM
CAKI-1 renal
  TGI: > 7.5 µM
K-562 leukemia
  TGI: > 7.5 µM
CCRF-CEM leukemia
  TGI: > 7.5 µM
NCI-H23 lung
  TGI: > 7.5 µM
OVCAR-8 ovarian
  TGI: > 7.5 µM
HT29 colon
  TGI: > 7.5 µM
SF-295 CNS
  TGI: > 7.5 µM
OVCAR-3 ovarian
  TGI: > 7.5 µM

From PubChem BioAssay (NCI)
